In general, IC50 refers to the concentration that inhibits the measured activity by half. In general, GI50 refers to the concentration giving 50% growth inhibition. Higher therefore signals lower sensitivity of the cells. A word on the inhibition: it is the share of the control response that was lost under treatment.

The target in test [1] is T1, LRRK2, LRRK2 (G2019S), DYRK1, CLK1 and TTK kinases (Homo sapiens, UniProt Q13627).
T1 construct: other: DYRK1; Kinase HotSpot service (Reaction Biology), ATP 10 uM
Kind of test: Enzyme IC50 by Kinase HotSpot service (Reaction Biology Corporation), values marked with *. The class given is biochemical. To be noted: DYRK1, ATP 10 uM. The method in brief: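 Radiometric-service kinase assays (Reaction Biology HotSpot protocol) run at 10 uM ATP under uniform conditions. Compounds tested as 3-fold dilution series from a top concentration of […] to give IC50.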

The test system of the next test is MDA-MB-231 cell line. In words: MDA-MB-231 cancer cell proliferation inhibition (Cell Titer-Glo). The class given is cell-based. To be noted: Homo sapiens, MDA-MB-231 triple-negative breast cancer cell line, 72 hours. A digest of the protocol:
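GI50 comes from CellTiter-Glo luminescence, read 10 min after reagent addition at RT, following 72 h compound treatment. Eleven concentrations were used (⅓ steps, highest 10 μM final) on 2000 cells/well. MDA-MB-231 and MDA-MB-468 were grown in DMEM, SHP-77 in RPMI.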
A general note: In ATP-based viability assays light output follows the ATP content of the culture.

Another test concerns human DYRK1A and Tau. Kind of test: Tau phosphorylation inhibition, ClariCELL Kinase Cell-Based Assay (Carnabio). A digest of the protocol:
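HEK293 cells transiently expressing human DYRK1A and Tau were exposed to compound, then lysed. Released Tau was captured on plate and its phosphorylation quantified by ELISA with a phospho-Tau-specific antibody.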

The target of another test is LRRK2 (Homo sapiens, UniProt Q5S007). In words: LRRK2 enzyme inhibition, ADP-Glo kinase assay. The class given is biochemical. Also noted: purchased Invitrogen PR8604B. The method in brief: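 Purified human LRRK2 (25 ng) in 40 mM Tris-HCl pH7.4, 20 mM MgCl2, 0.5 mg/ml BSA, 50 μM DTT with 10 μM ATP and substrate ([…]), 2 h at 25° C. Final compound 50 to 0.000001024 μM, 12-point dilution. ADP-Glo luminescence vs solvent control; IC50 (nM).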

The target in the next test is LRRK2 (G2019S) (Homo sapiens, UniProt Q5S007, G2019S). In words: LRRK2 G2019S enzyme inhibition, ADP-Glo kinase assay. The class given is biochemical. Details: purchased SignalChem L10-12GG. The method in brief:
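Purified human LRRK2 G2019S (16 ng) with 25 μM ATP and 0.2 μg substrate, 2 h at 25° C in 40 mM Tris-HCl pH 7.4, 20 mM MgCl2, 0.5 mg/ml BSA, 50 μM DTT; compound at 12 final concentrations from 50 μM downward. ADP-Glo luminescence versus solvent control gave IC50 (nM).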
A general note: In ADP-Glo the light output rises with the ADP produced.

LRRK2 (G2019S), sequence (Q5S007 970-2527 G2019S limits assumed): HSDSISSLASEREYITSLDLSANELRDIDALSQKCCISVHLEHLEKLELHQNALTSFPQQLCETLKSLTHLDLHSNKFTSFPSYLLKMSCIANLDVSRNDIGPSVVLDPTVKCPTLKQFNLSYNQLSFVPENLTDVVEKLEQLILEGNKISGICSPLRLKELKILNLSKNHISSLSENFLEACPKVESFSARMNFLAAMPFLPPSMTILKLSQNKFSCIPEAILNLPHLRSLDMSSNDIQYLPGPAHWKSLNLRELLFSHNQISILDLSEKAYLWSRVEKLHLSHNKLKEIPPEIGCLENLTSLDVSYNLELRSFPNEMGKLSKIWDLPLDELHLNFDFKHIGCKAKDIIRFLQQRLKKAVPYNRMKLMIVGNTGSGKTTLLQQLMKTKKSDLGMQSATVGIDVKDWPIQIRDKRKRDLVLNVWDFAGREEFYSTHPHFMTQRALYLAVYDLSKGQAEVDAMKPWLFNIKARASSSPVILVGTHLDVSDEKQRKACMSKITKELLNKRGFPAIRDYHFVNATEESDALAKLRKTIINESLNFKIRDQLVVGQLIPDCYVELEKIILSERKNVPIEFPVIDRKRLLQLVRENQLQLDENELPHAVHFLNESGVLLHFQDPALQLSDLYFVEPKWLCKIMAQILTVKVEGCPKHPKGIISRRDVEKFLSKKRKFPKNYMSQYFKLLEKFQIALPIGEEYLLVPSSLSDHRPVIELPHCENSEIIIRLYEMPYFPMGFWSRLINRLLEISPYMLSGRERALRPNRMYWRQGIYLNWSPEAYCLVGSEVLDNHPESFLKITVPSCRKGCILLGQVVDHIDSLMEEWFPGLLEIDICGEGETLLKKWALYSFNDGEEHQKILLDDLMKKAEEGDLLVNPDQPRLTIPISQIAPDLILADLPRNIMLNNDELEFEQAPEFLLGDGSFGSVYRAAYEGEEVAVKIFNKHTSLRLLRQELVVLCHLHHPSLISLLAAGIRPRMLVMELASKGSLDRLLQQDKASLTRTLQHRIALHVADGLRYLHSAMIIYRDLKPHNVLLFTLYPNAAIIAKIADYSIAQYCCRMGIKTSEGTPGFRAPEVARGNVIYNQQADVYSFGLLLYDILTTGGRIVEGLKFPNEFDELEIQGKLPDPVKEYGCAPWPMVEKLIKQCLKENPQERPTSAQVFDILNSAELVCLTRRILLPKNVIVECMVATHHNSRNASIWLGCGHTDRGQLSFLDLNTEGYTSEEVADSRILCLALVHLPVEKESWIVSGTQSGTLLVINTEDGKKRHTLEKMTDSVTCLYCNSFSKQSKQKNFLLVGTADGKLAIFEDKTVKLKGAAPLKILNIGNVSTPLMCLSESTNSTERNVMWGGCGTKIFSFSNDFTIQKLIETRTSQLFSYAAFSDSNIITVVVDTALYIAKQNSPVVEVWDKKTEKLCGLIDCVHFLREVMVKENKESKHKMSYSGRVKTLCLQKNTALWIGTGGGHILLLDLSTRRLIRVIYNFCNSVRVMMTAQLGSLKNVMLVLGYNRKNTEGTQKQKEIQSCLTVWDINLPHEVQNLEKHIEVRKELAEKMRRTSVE
LRRK2, sequence (Q5S007 970-2527 limits assumed): as the sequence (Q5S007 970-2527 G2019S limits assumed) above, with S1050G counted along it

In test [1], `O=C(c1ccc(Nc2cc(C3CC3)c3c(C(F)(F)F)c[nH]c3n2)c2c1CCO2)N1CCOCC1` [Example 91, (7-((4-cyclopropyl-3-(trifluoromethyl)-1H-pyrrolo[2,3-b]pyridin-6-yl)amino)-2,3-dihydrobenzofuran-4-yl)(morpholino) methanone] gave an IC50 of less than 100 nM. In the test with MDA-MB-231 cell line, this molecule returned a GI50 of 301 to 1000 nM. In the test on human DYRK1A and Tau, at 0.25 µM the inhibition was 12.9%, the inhibition at 0.5 µM was 33.1% and the inhibition at 1 µM was found to be 44.3%. The IC50 against LRRK2 was 301 to 1000 nM. On LRRK2 (G2019S), the IC50 was 301 to 1000 nM.

As for `COc1cc(S(=O)(=O)N2CCOCC2)ccc1Nc1cc(C2CC2)c2c(C(F)(F)F)c[nH]c2n1` [Example 222, 4-cyclopropyl-N-(2-methoxy-4-(morpholinosulfonyl)phenyl)-3-(trifluoromethyl)-1H-pyrrolo[2,3-b]pyridin-6-amine], the figures for the IC50 (in test [1]; at LRRK2; at LRRK2 (G2019S)) were 101 to 300 nM, 301 to 1000 nM and 301 to 1000 nM, respectively. This molecule had a 50% growth inhibitory concentration (GI50) in the test with MDA-MB-231 cell line of 301 to 1000 nM.

`CNc1cc(Nc2ccc(S(=O)(=O)N3CCC(N4CCOCC4)CC3)cc2OC)nc2[nH]cc(C(F)(F)F)c12` [Example 184, N^6-(2-methoxy-4-((4-morpholinopiperidin-1-yl)sulfonyl)phenyl)-N^4-methyl-3-(trifluoromethyl)-1H-pyrrolo[2,3-b]pyridine-4,6-diamine] showed a concentration for half-maximal inhibition (IC50) in test [1] of less than 100 nM. Further, the GI50 with MDA-MB-231 cell line lay within 301 to 1000 nM. In the test on human DYRK1A and Tau, this molecule showed an inhibition at 0.25 µM of 28.5%, an inhibition at 0.5 µM of 58.2% and an inhibition at 1 µM of 76.1%. At LRRK2 (G2019S), the IC50 was less than 100 nM.

In turn, `O=C(c1ccc(Nc2cc(C3CC3)c3c(C(F)(F)F)c[nH]c3n2)c2c1OCCO2)N1CCC(N2CCOCC2)CC1` [Example 221, (8-((4-cyclopropyl-3-(trifluoromethyl)-1H-pyrrolo[2,3-b]pyridin-6-yl)amino)-2,3-dihydrobenzo [b] [1,4]dioxin-5-yl)(4-morpholinopiperidin-1-yl)methanone] displayed an IC50 in test [1] of less than 100 nM. In the test with MDA-MB-231 cell line, this molecule displayed a GI50 of 301 to 1000 nM. In addition, in the test on human DYRK1A and Tau, testing at 0.25 µM gave an inhibition of 6.2%, testing at 0.5 µM gave an inhibition of 24.7% and the inhibition at 1 µM was 23%. On LRRK2, this molecule returned a half-maximal inhibitory concentration (IC50) of 101 to 300 nM. The IC50 against LRRK2 (G2019S) was in the range of 101 to 300 nM.

Turning to `O=C(c1ccc(Nc2cc(C3CC3)c3c(C(F)(F)F)c[nH]c3n2)c2c1CCO2)N1CCC(N2CCOCC2)CC1` [Example 93, (7-((4-cyclopropyl-3-(trifluoromethyl)-1H-pyrrolo[2,3-b]pyridin-6-yl)amino)-2,3-dihydrobenzofuran-4-yl)(4-morpholinopiperidin-1-yl)mthanone], the concentration for half-maximal inhibition (IC50) in test [1] is less than 100 nM. The GI50 in the test with MDA-MB-231 cell line is 301 to 1000 nM. Also, in the test with human DYRK1A and Tau, the inhibition at 0.25 µM worked out at 12%, the inhibition at 0.5 µM came to 28.8% and 1 µM produced 50.1% inhibition. Moreover, the IC50 on LRRK2 is less than 100 nM. The molecule further gave an IC50 at LRRK2 (G2019S) of less than 100 nM.

`O=C(c1ccc(Nc2cc(C3CC3)c3c(C(F)(F)F)c[nH]c3n2)c2c1CCO2)N1CC[C@@H](N2CCOCC2)C1` [Example 238, (R)-(7-((4-cyclopropyl-3-(trifluoromethyl)-1H-pyrrolo[2,3-b]pyridin-6-yl)amino)-2,3-dihydrobenzofuran-4-yl)(3-morpholinopyrrolidin-1-yl)methanone] gave an IC50 in test [1] of less than 100 nM. For the same molecule, the GI50 in the test with MDA-MB-231 cell line lay in the range of 301 to 1000 nM. In the test on human DYRK1A and Tau, this molecule registered an inhibition at 0.25 µM of 9.8%, an inhibition at 0.5 µM of 26.4% and an inhibition at 1 µM of 48.3%.

Turning to `N#Cc1c[nH]c2nc(Nc3ccc(C(=O)N4CCC(N5CCOCC5)CC4)c4c3OCCO4)cc(C3CC3)c12` [Example 226, 4-cyclopropyl-6-((8-(4-morpholinopiperidine-1-carbonyl)-2,3-dihydrobenzo[b] [1,4]dioxin-5-yl)amino)-1H-pyrrolo[2,3-b]pyridine-3-carbonitrile], the IC50 (in test [1]; on LRRK2; on LRRK2 (G2019S)) was less than 100 nM throughout. In the test on MDA-MB-231 cell line, this molecule displayed a GI50 of 301 to 1000 nM.

As to `O=C(c1ccc(Nc2cc(C3CC3)c3c(C(F)(F)F)c[nH]c3n2)c2c1CCO2)N1CC[C@H](N2CCOCC2)C1` [Example 237, (S)-(7-((4-cyclopropyl-3-(trifluoromethyl)-1H-pyrrolo[2,3-b]pyridin-6-yl)amino)-2,3-dihydrobenzofuran-4-yl)(3-morpholinopyrrolidin-1-yl)methanone], the IC50 in test [1] was less than 100 nM. Also, in the test on MDA-MB-231 cell line, the GI50 is 301 to 1000 nM. In the test with human DYRK1A and Tau, this molecule returned an inhibition at 0.25 µM of 7.7%, an inhibition at 0.5 µM of 20.5% and an inhibition at 1 µM of 34.5%.

The values above are taken from US12240844B2 (Voronoi, Inc., priority 2019, dated 2025).
